Source: ChEMBL document CHEMBL3297661, “1-Substituted-5-[(3,5-dinitrobenzyl)sulfanyl]-1H-tetrazoles and their isosteric analogs: A new class of selective antitubercular agents active against drug-susceptible and multidrug-resistant mycobacteria” (Eur J Med Chem, 2014)
Values after ≈ are worked out from the molar mass of the structure shown.

What was measured:
Assay type in all cases: functional
[1] = tested on: Mycobacterium tuberculosis; experiment: Antimycobacterial activity against multidrug-resistant Mycobacterium tuberculosis 8666/2010 after 7 days by micromethod
[2] = tested on: Mycobacterium tuberculosis; experiment: Antimycobacterial activity against multidrug-resistant Mycobacterium tuberculosis 234/2005 after 7 days by micromethod
[3] = tested on: Mycobacterium tuberculosis; experiment: Antimycobacterial activity against multidrug-resistant Mycobacterium tuberculosis Praha 4 after 7 days by micromethod
[4] = tested on: Mycobacterium tuberculosis; experiment: Antimycobacterial activity against multidrug-resistant Mycobacterium tuberculosis 9449/2007 after 7 days by micromethod
[5] = tested on: Mycobacterium tuberculosis; experiment: Antimycobacterial activity against multidrug-resistant Mycobacterium tuberculosis Praha 1 after 7 days by micromethod
[6] = tested on: Mycobacterium tuberculosis; experiment: Antimycobacterial activity against multidrug-resistant Mycobacterium tuberculosis Praha 131 after 7 days by micromethod
[7] = tested on: Mycobacterium tuberculosis; experiment: Antimycobacterial activity against multidrug-resistant Mycobacterium tuberculosis Praha 131 after 14 days by micromethod; conditions: Praha 131, 336 h
[8] = tested on: Mycobacterium tuberculosis; experiment: Antimycobacterial activity against multidrug-resistant Mycobacterium tuberculosis Praha 4 after 14 days by micromethod; conditions: Praha 4, 336 h
[9] = tested on: Mycobacterium tuberculosis; experiment: Antimycobacterial activity against multidrug-resistant Mycobacterium tuberculosis Praha 1 after 14 days by micromethod; conditions: Praha 1, 336 h
[10] = tested on: Mycobacterium tuberculosis; experiment: Antimycobacterial activity against multidrug-resistant Mycobacterium tuberculosis 9449/2007 after 14 days by micromethod; conditions: 9449/2007, 336 h
[11] = tested on: Mycobacterium tuberculosis; experiment: Antimycobacterial activity against multidrug-resistant Mycobacterium tuberculosis 234/2005 after 14 days by micromethod; conditions: 234/2005, 336 h
[12] = tested on: Mycobacterium tuberculosis; experiment: Antimycobacterial activity against multidrug-resistant Mycobacterium tuberculosis 8666/2010 after 14 days by micromethod; conditions: 8666/2010, 336 h

Row | Molecule | MIC ([1]; 8666/2010, 168 h) [µM] | MIC ([2]; 234/2005, 168 h) [µM] | MIC ([3]; Praha 4, 168 h) [µM] | MIC ([4]; 9449/2007, 168 h) [µM] | MIC ([5]; Praha 1, 168 h) [µM] | MIC ([6]; Praha 131, 168 h) [µM] | MIC [1] [µM] | MIC [2] [µM] | MIC [3] [µM] | MIC [4] [µM] | MIC [5] [µM] | MIC [6] [µM] | MIC [7] [µM] | MIC [8] [µM] | MIC [9] [µM] | MIC [10] [µM] | MIC [11] [µM] | MIC [12] [µM]
1 | NCC[C@H](O)C(=O)N[C@@H]1C[C@H](N)[C@@H](O[C@H]2O[C@H](CN)[C@@H](O)[C@H](O)[C@H]2O)[C@H](O)[C@H]1O[C@H]1O[C@H](CO)[C@@H](O)[C@H](N)[C@H]1O [AMIKACIN] | > 8 | 32 (≈ 18.7 µg/mL) | 0.5 (≈ 0.293 µg/mL) | 32 (≈ 18.7 µg/mL) | 2 (≈ 1.17 µg/mL) | > 32 | – | – | – | – | – | – | – | – | – | – | – | –
2 | GENTAMICIN | – | – | – | – | – | – | > 8 | > 32 | 2 | 16 | 16 | 0.5 | – | – | – | – | – | –
3 | CC[C@@H](CO)NCCN[C@@H](CC)CO [ETHAMBUTOL] | > 8 | > 32 | 0.5 (≈ 0.102 µg/mL) | 16 (≈ 3.27 µg/mL) | 2 (≈ 0.409 µg/mL) | 0.5 (≈ 0.102 µg/mL) | – | – | – | – | – | – | – | – | – | – | – | –
4 | O=[N+]([O-])c1cc(CSc2nnnn2C2CCCCC2)cc([N+](=O)[O-])c1 | 0.5 (≈ 0.182 µg/mL) | 1 (≈ 0.364 µg/mL) | 1 (≈ 0.364 µg/mL) | 1 (≈ 0.364 µg/mL) | 1 (≈ 0.364 µg/mL) | 1 (≈ 0.364 µg/mL) | – | – | – | – | – | – | 1 (≈ 0.364 µg/mL) | 0.5 (≈ 0.182 µg/mL) | 1 (≈ 0.364 µg/mL) | 1 (≈ 0.364 µg/mL) | 0.5 (≈ 0.182 µg/mL) | 0.5 (≈ 0.182 µg/mL)
5 | CC(C)/N=c1\cc2n(-c3ccc(Cl)cc3)c3ccccc3nc-2cc1Nc1ccc(Cl)cc1 [CLOFAZIMINE] | > 8 | 16 (≈ 7.57 µg/mL) | 0.125 (≈ 0.0592 µg/mL) | 8 (≈ 3.79 µg/mL) | 0.25 (≈ 0.118 µg/mL) | 1 (≈ 0.473 µg/mL) | – | – | – | – | – | – | – | – | – | – | – | –
6 | O=[N+]([O-])c1cc(C[Se]c2nnnn2C2CCCCC2)cc([N+](=O)[O-])c1 | 0.5 (≈ 0.206 µg/mL) | 1 (≈ 0.411 µg/mL) | 1 (≈ 0.411 µg/mL) | 1 (≈ 0.411 µg/mL) | 1 (≈ 0.411 µg/mL) | 1 (≈ 0.411 µg/mL) | – | – | – | – | – | – | 0.5 (≈ 0.206 µg/mL) | 0.5 (≈ 0.206 µg/mL) | 0.5 (≈ 0.206 µg/mL) | 0.5 (≈ 0.206 µg/mL) | 0.5 (≈ 0.206 µg/mL) | 0.5 (≈ 0.206 µg/mL)
7 | CC1COc2c(N3CCN(C)CC3)c(F)cc3c(=O)c(C(=O)O)cn1c23 (stereo unspecified) [OFLOXACIN] | > 8 | > 32 | 0.125 (≈ 0.0452 µg/mL) | 16 (≈ 5.78 µg/mL) | > 16 | 0.5 (≈ 0.181 µg/mL) | – | – | – | – | – | – | – | – | – | – | – | –
8 | CO[C@H]1/C=C/O[C@@]2(C)Oc3c(C)c(O)c4c(O)c(c(/C=N/N5CCN(C)CC5)c(O)c4c3C2=O)NC(=O)/C(C)=C\C=C\[C@H](C)[C@H](O)[C@@H](C)[C@@H](O)[C@@H](C)[C@H](OC(C)=O)[C@@H]1C [RIFAMPIN] | > 8 | 16 (≈ 13.2 µg/mL) | > 8 | 16 (≈ 13.2 µg/mL) | 1 (≈ 0.823 µg/mL) | 2 (≈ 1.65 µg/mL) | – | – | – | – | – | – | – | – | – | – | – | –
9 | CN[C@@H]1[C@H](O[C@H]2[C@H](O[C@H]3[C@H](O)[C@@H](O)[C@H](N=C(N)N)[C@@H](O)[C@@H]3N=C(N)N)O[C@@H](C)[C@]2(O)C=O)O[C@@H](CO)[C@H](O)[C@H]1O [STREPTOMYCIN] | 16 (≈ 9.31 µg/mL) | 32 (≈ 18.6 µg/mL) | 1 (≈ 0.582 µg/mL) | 64 (≈ 37.2 µg/mL) | 0.5 (≈ 0.291 µg/mL) | 0.5 (≈ 0.291 µg/mL) | – | – | – | – | – | – | – | – | – | – | – | –
10 | CCCCCCn1nnnc1[Se]Cc1cc([N+](=O)[O-])cc([N+](=O)[O-])c1 | 0.5 (≈ 0.207 µg/mL) | 1 (≈ 0.413 µg/mL) | 1 (≈ 0.413 µg/mL) | 1 (≈ 0.413 µg/mL) | 1 (≈ 0.413 µg/mL) | 1 (≈ 0.413 µg/mL) | – | – | – | – | – | – | 0.5 (≈ 0.207 µg/mL) | 0.5 (≈ 0.207 µg/mL) | 0.5 (≈ 0.207 µg/mL) | 0.5 (≈ 0.207 µg/mL) | 0.5 (≈ 0.207 µg/mL) | 0.25 (≈ 0.103 µg/mL)
11 | COc1ccc(-n2nnnc2[Se]Cc2cc([N+](=O)[O-])cc([N+](=O)[O-])c2)cc1 | 0.5 (≈ 0.218 µg/mL) | 1 (≈ 0.435 µg/mL) | 1 (≈ 0.435 µg/mL) | 1 (≈ 0.435 µg/mL) | 1 (≈ 0.435 µg/mL) | 1 (≈ 0.435 µg/mL) | – | – | – | – | – | – | 1 (≈ 0.435 µg/mL) | 0.5 (≈ 0.218 µg/mL) | 0.5 (≈ 0.218 µg/mL) | 1 (≈ 0.435 µg/mL) | 1 (≈ 0.435 µg/mL) | 0.5 (≈ 0.218 µg/mL)
12 | NNC(=O)c1ccncc1 [ISONIAZID] | 32 (≈ 4.39 µg/mL) | > 32 | 1 (≈ 0.137 µg/mL) | 16 (≈ 2.19 µg/mL) | 8 (≈ 1.1 µg/mL) | 0.25 (≈ 0.0343 µg/mL) | – | – | – | – | – | – | – | – | – | – | – | –
